Results on 25 molecules are retold here after patent publication US20240327359A1, “3-ISOXAZOLIDINONE COMPOUND, PREPARATION METHOD, HERBICIDAL COMPOSITION AND APPLICATION THEREOF” (QINGDAO KINGAGROOT CHEMICAL COMPOUND CO., LTD., priority 2021, published 2024).

Common to all, as to assay: Activity test of the compositions, post-emergence treatment by foliage spray
Common to all, as to assay type: in vivo

One assay concerns Galium aparine. Particulars: foliage (F). How it is done:
(§1) The desired active ingredient B was purchased from a reagent company or synthesized by a known method. The technical materials were all dissolved in acetone and diluted with an aqueous solution containing 0.10% emulsifier Tween-80 which were to be used immediately after dilution.
(§2) Weeds were cultivated by a pot culture method. […] Weed seeds with plump and uniform grains were selected, soaked in lukewarm water at 25° C. for 6 hours, and germinated in a 28° C. biochemical incubator (in darkness). The weed seeds that had just germinated were evenly placed on the surface of the soil and then covered with 0.5-1 cm soil according to the sizes of seeds.
(§3) Each treatment was repeated 4 times. Four pots with 20 weed seeds per pot were treated each time.
(§4) The agents were used for only once in total in the experiment. In the stage of 1.5-2 leaves, the weeds were thinned out to maintain 10 weeds per pot. Ten weeds were kept in each treatment, then continued to be cultured until Echinochloa crus-galli var. zelayensis reached the stage of 2-3 leaves, Cirsium setosum reached the stage of 5-6 leaves, Galium aparine reached the stage of 3-4 whorl leaves, Amaranthus retroflexus reached the stage of 3-5 leaves, Echinochloa crusgalli, Lolium multiflorum and Digitaria sanguinalis reached the stage of 3 leaves with one leaf not fully expanding for further treatment.
(§5) The well-cultured test materials were evenly placed on a platform with an area of 0.5 m^2, and solution of agents was sprayed on the stems and leaves thereof by the 3WP-2000-type walking spray tower at a dosage of 450 kg/ha and at a spray pressure of 0.3 MPa. After all the solution was sprayed, the valve was closed. After 30 seconds, the door of the spray tower was opened, and the nutritional bowl was taken out. Then the valve was opened, and the spray tube was cleaned by spraying 50 ml of water. After the treatment, the weeds were routinely cultured in a greenhouse.
(§6) A method for investigating absolute numbers was employed. Whole seedlings of survival weeds were cut off with a blade along the soil surface, and the fresh weight of the weeds was weighed with an analytical balance. For dead weeds, the fresh weight thereof was zero.
(§7) The investigation was performed 21 days after the treatment for only once in total.

Assay [1] has as its system Echinochloa crus-galli var. zelayensis. Particulars: Echinochloa crusgalli var. zelayensis, foliage (F). The procedure:
as §1, §2
(§8) The culture was carried out in a controllable sunlight greenhouse at 20 to 30° C., in natural light, and with relative humidity of 57% to 72%.
as §3, §4, §5, §6, §7

A further assay deals with Lolium multiflorum. The conditions noted are these: foliage (F). How it is done:
as §1, §2, §8, §3, §4, §5, §6, §7

For the next assay, the system named is Echinochloa crusgalli. Particulars: foliage (F). The procedure:
as §1, §2, §8, §3, §4, §5, §6, §7

In a further assay the test system is Digitaria sanguinalis. The procedure: as §1, §2, §8, §3, §4, §5, §6, §7
The next assay deals with Amaranthus retroflexus. Particulars: foliage (F). The procedure: as §1, §2, §8, §3, §4, §5, §6, §7

With `COc1c(Cl)ccc(Cl)c1C(=O)O` [dicamba], the “Control effect (%) of B applied alone (B)” value (from here on “Control effect (%)”) was 28.6% in the assay on Galium aparine (B 4 g a.i./mu) and 39.7% in the assay on Galium aparine (B 8 g a.i./mu).
Take `O=C(O)c1c(Cl)ccc2cc(Cl)cnc12` [quinclorac]: the entries for the “Control effect (%)” value in assay [1] (B 4 g a.i./mu) and in assay [1] (B 8 g a.i./mu) were 22.5% and 41.4%, respectively.
Regarding `COc1ncc(F)c2nc(S(=O)(=O)Nc3c(F)cccc3F)nn12` [florasulam], the “Control effect (%)” value in the assay with Galium aparine (B 0.1 g a.i./mu) is listed as 31.5%; in the assay on Galium aparine (B 0.2 g a.i./mu) it was 44.1%.
Regarding `Cc1nn(C)cc1C(=O)Oc1c(C(=O)c2ccc(C(F)(F)F)cc2S(C)(=O)=O)c(C)nn1C` [bipyrazone], the “Control effect (%)” value in the assay with Galium aparine (B 0.75 g a.i./mu) amounted to 33.6%; in the assay with Galium aparine (B 1.5 g a.i./mu) it was 46.2%.
Regarding `COC(=O)c1ccc(CNS(C)(=O)=O)cc1S(=O)(=O)NC(=O)Nc1nc(OC)cc(OC)n1` [mesosulfuron-methyl], the “Control effect (%)” value with Lolium multiflorum (B 0.25 g a.i./mu) is on record as 31.5%; with Lolium multiflorum (B 0.5 g a.i./mu), 44.3%.
Consider `CCC[S@@+]([O-])c1c(C(F)(F)F)ccc(C(=O)Nc2nnc(C)o2)c1F`, for which the “Control effect (%)” value is listed as 33.8% in the assay with Echinochloa crusgalli (B 1.5 g a.i./mu) and 49.7% in the assay on Echinochloa crusgalli (B 3 g a.i./mu).
Turning to `Cc1ccc2c(c1)[C@H](Nc1nc(N)nc(C(C)F)n1)[C@@H](C)C2` (some centres unmarked) [indaziflam], the “Control effect (%)” value in the assay with Digitaria sanguinalis (foliage treatment (F), B at 0.8 g a.i./mu, 21 days) was determined as 36.4%; in the assay with Digitaria sanguinalis (foliage treatment (F), B at 1.6 g a.i./mu, 21 days) it was 52.1%.
With `COc1cnc(OC)n2nc(NS(=O)(=O)c3c(OCC(F)F)cccc3C(F)(F)F)nc12` [penoxsulam], the results for the “Control effect (%)” value in the assay with Echinochloa crusgalli (B 0.5 g a.i./mu) and with Echinochloa crusgalli (B 1 g a.i./mu) were 52.7% and 61.7%, respectively.
As for `CCCN(CCC)C(=O)SCc1ccccc1` [prosulfocarb], the “Control effect (%)” value in the assay on Galium aparine (B 50 g a.i./mu) is recorded as 40.5%; with Galium aparine (B 100 g a.i./mu), 56.1%.
For the molecule `COc1cc(OC)nc(Oc2cccc(Oc3nc(OC)cc(OC)n3)c2C(=O)O)n1` [bispyribac], the figures for the “Control effect (%)” value with Echinochloa crusgalli (B 0.6 g a.i./mu) and in the assay with Echinochloa crusgalli (B 1.2 g a.i./mu) were 30.7% and 42. %, respectively.
With `CC(C)c1nn(C(=O)NC(C)(C)C)c(=O)n1N` [amicarbazone], the “Control effect (%)” value in the assay on Echinochloa crusgalli (B 4 g a.i./mu) worked out at 29.8%; in the assay on Echinochloa crusgalli (B 8 g a.i./mu) it was 37.2%.
With `C[C@@H](Oc1nc(F)c(Cl)c(N)c1Cl)C(=O)OCC1CCCO1` (some centres unmarked), the “Control effect (%)” value is on record as 30.7% in the assay with Lolium multiflorum (B 8 g a.i./mu) and 44.1% with Lolium multiflorum (B 16 g a.i./mu).
Turning to `COc1c(Cl)ccc(-c2cc(N)c(Cl)c(C(=O)O)n2)c1F` [halauxifen], the results for the “Control effect (%)” value in the assay on Galium aparine (B 0.2 g a.i./mu) and with Galium aparine (B 0.4 g a.i./mu) were 26.4% and 37.2%, respectively.
Regarding `COc1cc(OC)nc(NC(=O)NS(=O)(=O)c2ncccc2C(=O)N(C)C)n1` [nicosulfuron], the “Control effect (%)” value is given as 29.7% with Digitaria sanguinalis (foliage (F), B 1 g a.i./mu) and 47.6% in the assay with Digitaria sanguinalis (foliage (F), B 2 g a.i./mu).
As for `Cn1[nH]c(C2CC2)c(C(=O)c2ccc(C(F)(F)F)c(N3CCCCC3=O)c2Cl)c1=O` [cypyrafluone], the entries for the “Control effect (%)” value with Lolium multiflorum (B 3 g a.i./mu) and with Lolium multiflorum (B 6 g a.i./mu) were 26.7% and 38.9%, respectively.
For `COc1c(Cl)ccc(-c2nc(C(=O)O)c(Cl)c(N)c2F)c1F` [florpyrauxifen], the “Control effect (%)” value is listed as 22.5% in the assay with Echinochloa crusgalli (B 0.5 g a.i./mu) and 41.3% with Echinochloa crusgalli (B 1 g a.i./mu).
With `Cc1cc(Cl)ccc1OCC(=O)O` [MCPA], the “Control effect (%)” value is 33.1% in the assay with Galium aparine (B 20 g a.i./mu) and 46.7% in the assay with Galium aparine (B 40 g a.i./mu).
For the molecule `COC(=O)CCNC(=O)C(C)Sc1cc(-n2c(=O)cc(C(F)(F)F)n(C)c2=O)c(F)cc1Cl` (centres unmarked) [tiafenacil], the figures for the “Control effect (%)” value with Echinochloa crusgalli (B 0.5 g a.i./mu) and with Echinochloa crusgalli (B 1 g a.i./mu) were 33.4% and 45.9%, respectively.
On to `CS(=O)(=O)NC(=O)c1cc(Oc2ccc(C(F)(F)F)cc2Cl)ccc1[N+](=O)[O-]` [fomesafen], for which the results for the “Control effect (%)” value in the assay on Amaranthus retroflexus (B 4 g a.i./mu) and in the assay on Amaranthus retroflexus (B 8 g a.i./mu) were 38.1% and 47.5%, respectively.
Consider `CS(=O)(=O)c1ccc(C(=O)C2C(=O)CCCC2=O)c([N+](=O)[O-])c1` [mesotrione], for which the “Control effect (%)” value is 38.6% in the assay with Digitaria sanguinalis (foliage (F), B 2.5 g a.i./mu) and 52.1% in the assay with Digitaria sanguinalis (foliage (F), B 5 g a.i./mu).
Regarding `Cc1cc(C)n(Cc2c(S(C)(=O)=O)ccc(C(=O)c3c(C)nn(C)c3OC(=O)c3cn(C)nc3C)c2Cl)n1` [tripyrasulfone], the “Control effect (%)” value with Echinochloa crusgalli (B 4 g a.i./mu) is recorded as 26.7%; in the assay with Echinochloa crusgalli (B 8 g a.i./mu) it was 46.1%.
Turning to `CCn1ncc(C(=O)c2ccc(S(C)(=O)=O)c(COCC(F)(F)F)c2Cl)c1OC(=O)c1cn(C)nc1C` [fenpyrazone], the “Control effect (%)” value with Echinochloa crusgalli (B 1.5 g a.i./mu) worked out at 32.6%; in the assay on Echinochloa crusgalli (B 3 g a.i./mu), 50.7%.
As for `CCCCCCCC(=O)Oc1c(Br)cc(C#N)cc1Br` [bromoxynil octanoate], the “Control effect (%)” value in the assay on Amaranthus retroflexus (B 6 g a.i./mu) was 38.2%; in the assay with Amaranthus retroflexus (B 12 g a.i./mu), 49.5%.
Take `Nc1c(Cl)c(F)nc(OCC(=O)O)c1Cl` [fluroxypyr]: the “Control effect (%)” value in the assay with Galium aparine (B 4 g a.i./mu) is reported as 29.4%; in the assay on Galium aparine (B 8 g a.i./mu) it was 46.1%.
In the case of `CCC(=O)Nc1ccc(Cl)c(Cl)c1` [propanil], the “Control effect (%)” value in assay [1] (B 16 g a.i./mu) was 16.8%; in assay [1] (B 32 g a.i./mu), 31.2%.
